≈ marks a conversion by molar mass, not a printed value. Where “and” joins values, the source holds several entries; their conditions need not be identical. Equal entries are not always repeated. Where two headings read alike, the source gives them in different places.
Experiments:
Candida albicans = assay: Inhibition of Candida growth, CLSI M27-A2 broth microdilution (absorbance, MIC); format: cell-based; settings: for MIC: Candida, Table 2; for absorbance of the Candida strain: 37° C., 24 hours, replicate wells
Experimental: An inhibitory effect on Candida growth was evaluated using the CLSI M27 method, which is known as a standard method for antifungal susceptibility testing. The evaluation was performed using the broth microdilution method according to the guidelines of CLSI M27-A2. As medium, 10.4 g of RPMI-MOPS, which is RPMI-1640 medium (Gibco, Gaithersburg, MD, USA) supplemented with L-glutamine, was dissolved in 900 mL of distilled water, and then 34.53 g of 0.165 M 3-N-morpholinopropanesulfonic acid MOPS) buffer was dissolved therein to reach a final volume of 1,000 mL, followed by pH adjustment to 7.0. Then, the solution was filtered through a 0.2 μm filter, thus preparing a medium.
The carbazole compound was dissolved in triple distilled water or dimethyl sulfoxide (DMSO) (Sigma) to a concentration of 20 mg/mL.
A Candida strain was incubated in yeast extract peptone dextrose (YPED) for 16 hours at 30° C., and adjusted to 1.0 turbidity (measured by a spectrophotometer at 600 nm) so that the fungal concentration was about 2.0×10^7 CFU/mL. The fungal solution was washed with triple distilled water, and then diluted again with RPMI-MOPS medium, and 100 μL of the fungal solution was dispensed into each of well Nos. 1 to 10 of a 96-well microplate (final cell concentration: 2.0×10^4 CFU/mL). In addition, 100 μL of the fungal solution was dispensed into well No. 11 (a growth control well), and only 100 μL of RPMI-MOPS medium was dispensed into well No. 12 (a medium control well). After completion of fungal inoculation, the microplate was incubated at 37° C. for 24 hours.
For evaluation of the results, data were obtained by measuring the absorbance using a microplate spectrophotometer to prevent errors by the inspector.
In the data, the concentration at which growth was inhibited based on the medium control well was determined as MIC (minimum inhibitory concentration), and the results are shown in Table 2 below and FIG. 1.

HeLa cells = settings: 16 hours treatment, MTS, tested 1 to 64 μg/ml
Experimental: The cytotoxicity of the carbazole compound to mammalian cells was evaluated using the human cervical cancer cell line HeLa.
Cells were seeded into a 96-well microplate at a density of 1.0×10^4 cells per well, and cultured in 10% FBS-containing DMEM for 24 hours at 37° C. Then, the medium was removed, each well was washed once with PBS and then treated with the synthesized compound diluted in DMEM serially from a concentration of 64 μg/ml to a concentration of 1 μg/ml. 16 hours after treatment with the compound, cytotoxicity was measured using MTS.

A. fumigatus = assay: MIC test against A. fumigatus, same manner as Example 1-1; format: cell-based
Candida SC5314 [1] = assay: Extent of kidney infection in Candida-infected mice; format: in vivo; settings: Candida infection by tail vein injection; treated as in Example 3-1
Experimental: (§1) For Candida infection, SC5314, a wild-type strain, was used, and 6-week-old Balb/C female mice were used. The mice were divided into two groups, each consisting of 5 mice, and the survival rate thereof was monitored.
5.0×10^5 Candida cells were diluted in 200 μl of PBS and mice were infected with the dilution by tail vein injection. From day 1 after infection, the control group was inoculated with 200 μl of PBS by tail vein injection, the experimental groups were weighed and treated with molecule B (diluted in 100 μl of PBS) in an amount of 8 mg/kg by tail vein injection or treated with molecule C (diluted in 100 μl of PBS) in an amount of 16 mg/kg by tail vein injection.
After Candida infection performed by tail vein injection as described in Example 3-1, the mice showing the following conditions based on humane euthanasia standards were euthanized using CO2, and the kidneys were collected therefrom and the extents of infection thereof were compared: inability to eat food or drink water; abnormal breathing; dull and stiff hair; reduced movement; or bent posture or body tremor.

Candida SC5314 [2] = assay: Survival of candidiasis mouse models, compounds in drinking water; format: in vivo; settings: Balb/C mice infected by tail vein; drinking water with molecule B 16 μg/ml or molecule C 32 μg/ml daily; monitored 2 weeks; control 0% within 9 days
Text: as §1
The control group of the experiment using drinking water was provided with normal drinking water daily after Candida infection performed by tail vein injection as described in Example 3-1, and the experimental groups were provided daily with drinking water treated with molecule B at a concentration of 16 μg/ml or with drinking water treated with molecule C at a concentration of 32 μg/ml. The survival rates of the mice were monitored daily for 2 weeks.

S. cerevisiae = assay: MIC test against budding yeast, same manner as Example 1-1; format: cell-based
[3] = Candida albicans, read-out: MIC

Question: Which MIC (Candida albicans; [3]) does the source give for C(=C\c1ccccc1)/CN1CCN(CCCCCn2c3ccccc3c3ccccc32)CC1 [Molecule A] here?
Answer: Its MIC is 32 µg/mL (≈ 73.1 µM).

Question: How did the “concentration up to which no toxicity to mammalian cells was shown” value (HeLa cells) turn out when Nc1ccc(CCCN2CCN(CCCCn3c4ccccc4c4cc(Br)ccc43)CC2)cc1 [Molecule B] was run?
Answer: Its value is no more than 16000 ng/mL.

Question: And the “MIC against Candida” value (Candida albicans)?
Answer: The value was 8 µg/mL (≈ 15.4 µM).

Question: What about the “absorbance of the Candida strain” value (Candida albicans; 0.125 μg/ml compound) of the same compound?
Answer: Its value is 0.209 and 0.229 and 0.206.

Question: What about the “absorbance of the Candida strain” value (Candida albicans; 0.25 μg/ml compound) of the same compound?
Answer: Its value is 0.199 and 0.201 and 0.212.

Question: What about the “absorbance of the Candida strain” value (Candida albicans; 0.5 μg/ml compound) of the same compound?
Answer: Its value is 0.198 and 0.199 and 0.218.

Question: And the “absorbance of the Candida strain” value (Candida albicans; 1 μg/ml compound)?
Answer: The value was 0.224 and 0.228 and 0.208.

Question: And the “absorbance of the Candida strain” value (Candida albicans; 2 μg/ml compound)?
Answer: The value was 0.143 (2×) and 0.152.

Question: What about the “absorbance of the Candida strain” value (Candida albicans; 4 μg/ml compound) of the same compound?
Answer: Its value is 0.137 and 0.132 and 0.135.

Question: What about the “absorbance of the Candida strain” value (Candida albicans; 8 μg/ml compound) of the same compound?
Answer: Its value is 0.041 (2×) and 0.034.

Question: What about the “absorbance of the Candida strain” value (Candida albicans; 16 μg/ml compound) of the same compound?
Answer: Its value is 0.042 (2×) and 0.036.

Question: And the “absorbance of the Candida strain” value (Candida albicans; 32 μg/ml compound)?
Answer: Its value is 0.047 and 0.045 and 0.04.

Question: And the “absorbance of the Candida strain” value (Candida albicans; 64 μg/ml compound)?
Answer: The value was 0.043 and 0.044 and 0.036.

Question: And the MIC (Candida albicans)?
Answer: The MIC was 8 µg/mL (≈ 15.4 µM).

Question: What about the “MIC against A. fumigatus” value (A. fumigatus) of the same compound?
Answer: Its value is 64 µg/mL (≈ 123 µM).

Question: And the “extent of kidney infection compared to control mice” value (Candida SC5314 [1])?
Answer: Its value is “very low extent of kidney infection”.

Question: And the survival rate (Candida SC5314 [2])?
Answer: Its survival rate is 100%.

Question: And the “MIC against budding yeast S. cerevisiae” value (S. cerevisiae)?
Answer: The value was 4 µg/mL (≈ 7.7 µM).

Question: How did the “concentration up to which no toxicity to mammalian cells was shown” value (HeLa cells) turn out when Nc1ccc(CCCN2CCN(CCCCn3c4ccccc4c4ccccc43)CC2)cc1 [Molecule C] was run?
Answer: The value was no more than 32000 ng/mL.

Question: What about the “MIC against Candida” value (Candida albicans) of the same compound?
Answer: The value was 16 µg/mL (≈ 36.3 µM).

Question: And the “absorbance of the Candida strain” value (Candida albicans; 0.125 μg/ml compound)?
Answer: The value was 0.168 and 0.156 and 0.17.

Question: And the “absorbance of the Candida strain” value (Candida albicans; 0.25 μg/ml compound)?
Answer: Its value is 0.189 and 0.193 and 0.162.

Question: And the “absorbance of the Candida strain” value (Candida albicans; 0.5 μg/ml compound)?
Answer: Its value is 0.182 and 0.25 and 0.199.

Question: And the “absorbance of the Candida strain” value (Candida albicans; 1 μg/ml compound)?
Answer: Its value is 0.196 and 0.193 and 0.194.

Question: And the “absorbance of the Candida strain” value (Candida albicans; 2 μg/ml compound)?
Answer: The value was 0.19 and 0.198 and 0.188.

Question: What about the “absorbance of the Candida strain” value (Candida albicans; 4 μg/ml compound) of the same compound?
Answer: The value was 0.194 and 0.24 and 0.195.

Question: And the “absorbance of the Candida strain” value (Candida albicans; 8 μg/ml compound)?
Answer: Its value is 0.122 and 0.136 and 0.124.

Question: What about the “absorbance of the Candida strain” value (Candida albicans; 16 μg/ml compound) of the same compound?
Answer: Its value is 0.044 and 0.04 and 0.038.

Question: And the “absorbance of the Candida strain” value (Candida albicans; 32 μg/ml compound)?
Answer: Its value is 0.043 and 0.039 (2×).

Question: What about the “absorbance of the Candida strain” value (Candida albicans; 64 μg/ml compound) of the same compound?
Answer: Its value is 0.044 and 0.04 and 0.039.

Question: And the MIC (Candida albicans)?
Answer: Its MIC is 16 µg/mL (≈ 36.3 µM).

Question: And the “MIC against A. fumigatus” value (A. fumigatus)?
Answer: The value was 64 µg/mL (≈ 145 µM).

Question: What about the “extent of kidney infection compared to control mice” value (Candida SC5314 [1]) of the same compound?
Answer: Its value is “very low extent of kidney infection”.

Question: What about the survival rate (Candida SC5314 [2]) of the same compound?
Answer: The survival rate was 80%.

Question: And the “MIC against budding yeast S. cerevisiae” value (S. cerevisiae)?
Answer: The value was 4 µg/mL (≈ 9.08 µM).

Question: Which MIC (Candida albicans; [3]) does the source give for CN(C/C=C/c1ccccc1)CCCCn1c2ccccc2c2ccccc21 [Molecule D] here?
Answer: The MIC was 16 µg/mL (≈ 43.4 µM).

Question: With Nc1cccc(CCCN2CCN(CCCCn3c4ccccc4c4ccccc43)CC2)c1 [Molecule E] as the compound, how does the MIC (Candida albicans; [3]) read?
Answer: The MIC was 32 µg/mL (≈ 72.6 µM).

Question: For Nc1ccc(CCCN2CCN(CCCCN(c3ccccc3)c3ccccc3)CC2)cc1 [Molecule F], which MIC (Candida albicans; [3]) is on record?
Answer: Its MIC is 32 µg/mL (≈ 72.3 µM).

Question: Which MIC (Candida albicans) does the source give for Nc1ccc(CCCN2CCN(CCCCn3c4ccccc4c4cc([N+](=O)[O-])ccc43)CC2)cc1 [Molecule G] here?
Answer: The MIC was 16 µg/mL (≈ 32.9 µM).

Question: Which MIC (Candida albicans; [3]) does the source give for Nc1ccc(CCCCN2CCN(CCCCn3c4ccccc4c4ccccc43)CC2)cc1 [Molecule H] here?
Answer: The MIC was 32 µg/mL (≈ 70.4 µM).

Question: For Nc1ccc(CCCC2CCN(CCCCn3c4ccccc4c4ccccc43)CC2)cc1 [Molecule I], which MIC (Candida albicans; [3]) is on record?
Answer: The MIC was 32 µg/mL (≈ 72.8 µM).

Question: Which MIC (Candida albicans) does the source give for Nc1ccc(CCCN2CCN(CCCCn3c4ccccc4c4cccc(Br)c43)CC2)cc1 [Molecule J] here?
Answer: The MIC was 32 µg/mL (≈ 61.6 µM).
